Assay results as given in US11642359B2, “Nutritional composition for improving intestinal barrier integrity, preparation of the composition and method of treatment” (priority 2018, dated 2023).

System: alpha-1 antitrypsin (A1AT) in the gut wash
Assay: A1AT in the gut wash by ELISA as marker of intestinal permeability / barrier disruption in rotavirus-infected suckling rats
Format: in vivo, rat
Conditions: compared to both the RV and REF groups (p<0.05), 3rd day of the diarrheal period (peak of diarrhea)
Experimental: Newborn rats were distributed into five groups of 24 animals each: the reference (REF) group, rotavirus-infected (RV) group, and 3 rotavirus-infected groups supplemented with: a) a mixture of scGOS and lcFOS (RV+GOS/FOS group); b) 2′-FL (RV+2′-FL group); and c) both scGOS/lcFOS and 2′-FL (RV+GOS/FOS+2′-FL group).
Suckling rats were orally administered once daily with the same normalized volume/body weight of all products (4.5 μL/g/day), from the second to the sixteenth day of life, corresponding to the strict lactation period. The RV+GOS/FOS group was supplemented with 0.8 g of scGOS/lcFOS/100 g of body weight. The RV+2′-FL group was supplemented with 0.2 g of 2′-FL/100 g of body weight. The RV+GOS/FOS+2′-FL group received both products at the same doses as when given separately and maintaining the volume of administration (4.5 μL/g/day). The REF and RV groups were administered with a matched volume of water. […]
The quantification of A1AT in the gut wash, as a marker of intestinal permeability, was performed with the rat SERPINA1/Alpha 1 Antitrypsin ELISA kit (LifeSpan Biosciences Inc., Seattle, Wash., USA) following the manufacturer's instructions. […]

## 2′-fucosyllactose [2′-FL]
  concentration of A1AT in the gut wash: reduced
Listed as 2′-fucosyllactose
  concentration of A1AT in the gut wash: significant reduction
